Laboratory results reported in ChEMBL document CHEMBL1201862, “PubChem BioAssay data set” (2004).
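1) Cells in 96-well plates. 2) Compound, 48 h, 5 concentrations. 3) Linear interpolation between surrounding doses. 4) Unreached endpoint = highest concentration. Abbreviation: GI50, concentration required for 50% inhibition of growth.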 Activity calls are given as the source filed them. No stated cut-off is given here; in the data, active = GI50 up to about 1.1 µM and inactive = higher.

How the values were obtained:
Test in all cases: NCI anticancer screen, dose series, 48 h
786-0 = tested on: 786-0
HL-60 = tested on: HL-60
UACC-257 = tested on: UACC-257
HOP-92 = tested on: HOP-92
HCT-15 = tested on: HCT-15
M14 = tested on: M14
CCRF-CEM = tested on: CCRF-CEM
SF-539 = tested on: SF-539
T47D = tested on: T47D
MOLT-4 = tested on: MOLT-4
UACC-62 = tested on: UACC-62
UO-31 = tested on: UO-31
OVCAR-8 = tested on: OVCAR-8
U-251 = tested on: U-251
OVCAR-5 = tested on: OVCAR-5
SK-MEL-2 = tested on: SK-MEL-2
OVCAR-3 = tested on: OVCAR-3
HT-29 = tested on: HT-29
LOX IMVI = tested on: LOX IMVI
SK-MEL-28 = tested on: SK-MEL-28
SK-MEL-5 = tested on: SK-MEL-5
TK-10 = tested on: TK-10
KM12 = tested on: KM12
SF-295 = tested on: SF-295
NCI-H23 = tested on: NCI-H23
SW-620 = tested on: SW-620
HCT-116 = tested on: HCT-116
BT-549 = tested on: BT-549
SK-OV-3 = tested on: SK-OV-3
SNB-19 = tested on: SNB-19
CAKI-1 = tested on: CAKI-1
MDA-MB-231 = tested on: MDA-MB-231
NCI-H522 = tested on: NCI-H522
ACHN = tested on: ACHN
MDA-N = tested on: MDA-N
PC-3 = tested on: PC-3
COLO 205 = tested on: COLO 205
RXF 393 = tested on: RXF 393
Malme-3M = tested on: Malme-3M
DU-145 = tested on: DU-145
MCF7 = tested on: MCF7
IGROV-1 = tested on: IGROV-1
NCI-H226 = tested on: NCI-H226
EKVX = tested on: EKVX
SN12C = tested on: SN12C
NCI/ADR-RES = tested on: NCI/ADR-RES
HOP-62 = tested on: HOP-62
NCI-H460 = tested on: NCI-H460
SR = tested on: SR
SNB-75 = tested on: SNB-75
Hs-578T = tested on: Hs-578T
SF-268 = tested on: SF-268
A498 = tested on: A498
A549 = tested on: A549
RPMI-8226 = tested on: RPMI-8226
MDA-MB-435 = tested on: MDA-MB-435
K562 = tested on: K562
HCC 2998 = tested on: HCC 2998
OVCAR-4 = tested on: OVCAR-4

O=C(O)CCNCC(=O)O
GI50 (786-0): > 100 µM (inactive) | GI50 (HL-60): > 100 µM (inactive) | GI50 (UACC-257): > 100 µM (inactive) | GI50 (HOP-92): > 100 µM (inactive) | GI50 (HCT-15): > 100 µM | GI50 (M14): > 100 µM (inactive) | GI50 (CCRF-CEM): > 100 µM (inactive) | GI50 (SF-539): > 100 µM (inactive) | GI50 (T47D): > 100 µM (inactive) | GI50 (MOLT-4): > 100 µM (inactive) | GI50 (UACC-62): > 100 µM (inactive) | GI50 (UO-31): > 100 µM (inactive) | GI50 (OVCAR-8): > 100 µM (inactive) | GI50 (U-251): > 100 µM (inactive) | GI50 (OVCAR-5): > 100 µM (inactive) | GI50 (SK-MEL-2): > 100 µM (inactive) | GI50 (OVCAR-3): > 100 µM (inactive) | GI50 (HT-29): > 100 µM (inactive) | GI50 (LOX IMVI): > 100 µM (inactive) | GI50 (SK-MEL-28): > 100 µM (inactive) | GI50 (SK-MEL-5): > 100 µM (inactive) | GI50 (TK-10): > 100 µM (inactive) | GI50 (KM12): > 100 µM (inactive) | GI50 (SF-295): > 100 µM (inactive) | GI50 (NCI-H23): > 100 µM (inactive) | GI50 (SW-620): > 100 µM (inactive) | GI50 (HCT-116): > 100 µM (inactive) | GI50 (BT-549): > 100 µM (inactive) | GI50 (SK-OV-3): > 100 µM (inactive) | GI50 (SNB-19): > 100 µM (inactive) | GI50 (CAKI-1): > 100 µM (inactive) | GI50 (MDA-MB-231): > 100 µM (inactive) | GI50 (NCI-H522): > 100 µM (inactive) | GI50 (ACHN): > 100 µM (inactive) | GI50 (MDA-N): > 100 µM (inactive) | GI50 (PC-3): > 100 µM (inactive) | GI50 (COLO 205): > 100 µM (inactive) | GI50 (RXF 393): > 100 µM (inactive) | GI50 (Malme-3M): > 100 µM (inactive) | GI50 (DU-145): > 100 µM (inactive) | GI50 (MCF7): > 100 µM (inactive) | GI50 (IGROV-1): > 100 µM (inactive) | GI50 (NCI-H226): > 100 µM (inactive) | GI50 (EKVX): > 100 µM (inactive) | GI50 (SN12C): > 100 µM (inactive) | GI50 (NCI/ADR-RES): > 100 µM (inactive) | GI50 (HOP-62): > 100 µM (inactive) | GI50 (NCI-H460): > 100 µM (inactive) | GI50 (SR): > 100 µM (inactive) | GI50 (SNB-75): > 100 µM (inactive) | GI50 (Hs-578T): > 100 µM (inactive) | GI50 (SF-268): > 100 µM (inactive) | GI50 (A498): > 100 µM (inactive) | GI50 (A549): > 100 µM (inactive) | GI50 (RPMI-8226): > 100 µM (inactive) | GI50 (MDA-MB-435): > 100 µM (inactive) | GI50 (K562): > 100 µM (inactive)

C=CCC(CCC(C)=O)(C(=O)OCC)C(=O)OCC
GI50 (786-0): > 100 µM (inactive) | GI50 (HL-60): > 100 µM (inactive) | GI50 (UACC-257): > 100 µM (inactive) | GI50 (HOP-92): > 100 µM (inactive) | GI50 (HCT-15): > 100 µM | GI50 (HCC 2998): > 100 µM (inactive) | GI50 (M14): > 100 µM (inactive) | GI50 (CCRF-CEM): > 100 µM (inactive) | GI50 (SF-539): > 100 µM (inactive) | GI50 (T47D): > 100 µM (inactive) | GI50 (MOLT-4): > 100 µM (inactive) | GI50 (UACC-62): > 100 µM (inactive) | GI50 (UO-31): > 100 µM (inactive) | GI50 (OVCAR-8): > 100 µM (inactive) | GI50 (U-251): > 100 µM (inactive) | GI50 (OVCAR-5): > 100 µM (inactive) | GI50 (SK-MEL-2): > 100 µM (inactive) | GI50 (OVCAR-3): > 100 µM (inactive) | GI50 (HT-29): > 100 µM (inactive) | GI50 (SK-MEL-28): > 100 µM (inactive) | GI50 (SK-MEL-5): > 100 µM (inactive) | GI50 (TK-10): > 100 µM (inactive) | GI50 (KM12): > 100 µM (inactive) | GI50 (SF-295): > 100 µM (inactive) | GI50 (OVCAR-4): > 100 µM (inactive) | GI50 (NCI-H23): > 100 µM (inactive) | GI50 (SW-620): > 100 µM (inactive) | GI50 (HCT-116): > 100 µM (inactive) | GI50 (BT-549): > 100 µM (inactive) | GI50 (SK-OV-3): > 100 µM (inactive) | GI50 (SNB-19): > 100 µM (inactive) | GI50 (CAKI-1): > 100 µM (inactive) | GI50 (MDA-MB-231): > 100 µM (inactive) | GI50 (NCI-H522): > 100 µM (inactive) | GI50 (ACHN): > 100 µM (inactive) | GI50 (MDA-N): > 100 µM (inactive) | GI50 (PC-3): > 100 µM (inactive) | GI50 (COLO 205): > 100 µM (inactive) | GI50 (RXF 393): > 100 µM (inactive) | GI50 (Malme-3M): > 100 µM (inactive) | GI50 (DU-145): > 100 µM (inactive) | GI50 (MCF7): > 100 µM (inactive) | GI50 (IGROV-1): > 100 µM (inactive) | GI50 (NCI-H226): > 100 µM (inactive) | GI50 (EKVX): > 100 µM (inactive) | GI50 (SN12C): > 100 µM (inactive) | GI50 (NCI/ADR-RES): > 100 µM (inactive) | GI50 (HOP-62): > 100 µM (inactive) | GI50 (NCI-H460): > 100 µM (inactive) | GI50 (SR): > 100 µM (inactive) | GI50 (SNB-75): > 100 µM (inactive) | GI50 (Hs-578T): > 100 µM (inactive) | GI50 (SF-268): > 100 µM (inactive) | GI50 (A498): > 100 µM (inactive) | GI50 (A549): > 100 µM (inactive) | GI50 (RPMI-8226): > 100 µM (inactive) | GI50 (MDA-MB-435): > 100 µM (inactive) | GI50 (K562): > 100 µM (inactive)
